Assay results taken from paper PMC4445981, “The glutamate transport inhibitor DL-Threo-β-Benzyloxyaspartic acid (DL-TBOA) differentially affects SN38- and oxaliplatin-induced death of drug-resistant colorectal cancer cells” (BMC Cancer, 2015).

How the values were obtained:
[1] = tested on: [3H]-D-Asp uptake (glutamate transporter activity) in HCT116-PAR cells; assay: [3H]-D-Asp uptake assay, HCT116-PAR; type: cell-based, human; settings: HCT116-PAR, 100 nM [3H]-D-Asp, 6 min, 37 °C
Experimental: We therefore next determined glutamate transporter activity (as uptake of the substrate [^3H]-D-Asp following a 6-min incubation in buffer supplemented with a tracer concentration of 100 nM [^3H]-D-Asp). […] To determine which transporter(s) was responsible for the [^3H]-D-Asp uptake, we assessed the effect of DL-TBOA, a nonselective inhibitor of EAATs, and UCPH-101, a specific SLC1A3 inhibitor [16, 28, 29]. […] Basal [^3H]-D-Asp uptake was decreased by about 60 % in SN38-resistant compared to parental HCT116 cells, whereas that in SN38-resistant LoVo cells was nearly tripled compared to parental LoVo cells.
The [^3H]-D-Asp uptake assay was performed essentially as in [30]. Briefly, cells were split into poly-D-lysine-coated white 96-well plates (PerkinElmer). A similar number of cells were seeded for HCT116 parental, HCT116-SN38 and HCT116-Oxa cell lines (7 × 10^4 cells/well) and LoVo parental, Lovo-SN38 and Lovo-Oxa cell lines (6 × 10^4 cells/well). 16–24 h later, culture medium was aspirated, and cells were washed once with 100 μl assay buffer (Hank’s Buffered Saline Solution supplemented with 20 mM HEPES, 1 mM CaCl2 and 1 mM MgCl2, pH 7.4). 50 μl assay buffer supplemented with 100 nM [^3H]-D-Asp and test compounds as indicated was added, and the plate was incubated at 37 °C for 6 min. Non-specific [^3H]-D-Asp uptake was determined in wells with 3 mM L-glutamate. The assay mixture was quickly removed, and wells were washed with 2 × 100 μl ice-cold assay buffer, followed by 150 μl Microscint™20 scintillation fluid (PerkinElmer). The plate was shaken for 1 h and counted in a Wallac 1450 MicroBeta Trilux scintillation counter (GMI, Ramsey, MN).

[2] = tested on: PARP-1 cleavage; assay: PARP-1 cleavage by Western blotting; type: cell-based, human; settings: DL-TBOA; HCT116 and LoVo cells
Experimental: Cells were grown to a confluence of 60-80 % and treated with chemotherapy, siRNA- or plasmid transfection as indicated. Cells were washed once in PBS, lysed in lysis buffer (1 % SDS, 0.1 M Tris pH 7.5, and 1 mM Na3VO4), sonicated, and protein content determined (DC assay, BioRad). Lysates were mixed 2:1with NuPage LDS sample buffer (Invitrogen). SDS-PAGE was carried out in NOVEX chambers with NuPAGE 10 % Bis-Tris gels under reducing and denaturing conditions, using BenchMark protein ladder (Invitrogen), and 15 μg protein per lane. Proteins were transferred to PVDF membranes, which were Ponceau S stained, blocked for 1 h at 37 °C in 5 % nonfat dry milk in TBST (0.01 M Tris/HCl, 0.15 M NaCl, 0.1 % Tween 20, pH 7.4), incubated overnight at 4 °C with primary antibodies diluted in blocking buffer, washed in TBST, incubated with secondary antibodies for 1 h, washed in TBST, and developed using BCIP/NBT (KPL). Bands were scanned and quantified using UN-SCAN-IT (Silk Scientific).
Supplementary file 12885_2015_1405_MOESM3_ESM.tiff: Additional file 3: Figure S3. […] Equal amounts of protein per lane were separated by SDS-PAGE and the protein levels of p21, and PARP-1 (full-length and cleaved, the latter indicated by arrowheads) were determined by Western blotting. […] Bottom: Densitometric quantifications based on 3 independent experiments per condition. […]

[3] = tested on: SLC1A3; settings: depending on the system and experimental setup; cited from earlier work

In the case of `N[C@H](C(=O)O)[C@H](OCc1ccccc1)C(=O)O` (racemic) [TBOA, DL-Threo-β-Benzyloxyaspartic acid], the “pIC50 ± S.E.M., [3H]-D-Asp uptake” value [1] is reported as 5.75 ± 0.03, the IC50 ([1]; read-out: IC50, [3H]-D-Asp uptake) is reported as 1800 nM and the “effect on cellular level of cleaved PARP-1” value [2] is reported as “did not significantly alter”. For the same compound, the “IC50 values in uptake assays” value [3] was “low micromolar range”.
